One assay concerns MCF-7 cells. The experiment in a line: Luciferase assay (bioluminescent cell viability). The assay is classed as cell-based, human. The following applies: 24 hours. Here is the method: (§1) Cell lines and culture. MCF-7 and MDA human breast cancer cell lines stably transfected with firefly luciferase gene were purchased from Caliper Life Sciences (Hanover, MD). MCF-7 cells were cultured in DMEM medium (Invitrogen, Carlsbad, CA) and MDA cells were grown in DMEM/F-12 (1:1) medium (Invitrogen). Both media were supplemented with 10% fetal bovine serum (Invitrogen) and antibiotic-antimycotic mixture (100 IU/ml penicillin and 100 μg/ml streptomycin; Cellgro). The cells were maintained at 37° C. in 5% CO2. All experiments were performed when the cells were in the logarithmic phase of growth. Luciferase assay. The MDA cell line and the hormone receptor-positive MCF-7 cell line were utilized to test the effectiveness of Sal-B and doxorubicin on cancer cell viability. Both cell lines had been stably transfected and expressed the firefly luciferase gene. The bioluminescent signal intensity reflects the cell metabolic activity, being highly correlated with the cell viability. Cell viability was evaluated using the sensitive bioluminescent optical imaging. The cells (10,000 per well) were seeded in flat-bottomed 96-well plates in the above-identified medium with 10% fetal bovine serum and allowed to grow overnight. The old medium was then replaced with fresh medium containing different concentrations of Sal-B (50, 100, 150, and 200 μM) or doxorubicin (0.1, 0.2, 0.5, and 1 μM). The cells were further cultured for 24 hours and D-luciferin was added to each well and mixed gently (final concentration of 150 μ/ml). The signal was measured with the Xenogen IVIS 200 imaging system (Caliper Life Sciences, Hopkinton, MA, USA). The system was equipped with a highly sensitive, cooled charge-coupled device (CCD) camera and a light-tight specimen box. Imaging and quantification of signals was controlled by the acquisition and analysis software Living Image 3.0. The bioluminescent signal from the cells in each well was expressed as total flux (photons per second (p/s)). At least five replicates were performed in each experiment, and each experiment was repeated at least three times. The representative data are presented.

For a further assay, the system named is MDA-MB-231 cells. The assay is described as follows: Luciferase assay (bioluminescent cell viability). Type of assay: cell-based, human. The settings on record: MDA cells, 24 hours. The procedure: as §1
Assay [1] has as its system MDA tumor xenografts. The assay is described as follows: Human tumor xenografts in athymic nude mice, tumor weight. The assay is classed as in vivo. The settings on record: doxorubicin 4 mg/kg every four weeks, intraperitoneal; day 37; mean±SD; untreated control 0.81±0.12 g. Here is the method: Human tumor xenografts in athymic nude mice. […] The animal protocol was approved by the Howard University Animal Care and Use Committee. Four-week-old female athymic nude mice (Nu/Nu) were obtained from Harlan Sprague Dawley (Indianapolis, IN). All mice were provided the Harlan Teklad #2018 Global 18% protein rodent diet and water ad libitum. Mice were housed in temperature-controlled rooms (74±2° F.) with a 12-hour alternating light-dark cycle. MDA cells (3×10^6/50 μL/spot) were subcutaneously injected into the both sides of lower back of mice using a 27-gauge needle. On day 10 after cell implantation, the mice with tumors (˜5 mm in diameter) were randomly divided into Sal-B treated, doxorubicin treated, and untreated groups (five mice per group), and were administrated Sal-B (80 mg/kg, three times per week), doxorubicin (4 mg/kg, every four weeks) and 0.9% saline (50 μl, three times per week), respectively, by intraperitoneal injection for a total of 37 days. […] All mice were sacrificed on day 37.

In another assay the test system is cyclin B1. The experiment in a line: Western blot of cyclin B1 expression in MDA and MCF-7 cells. The assay is classed as cell-based, human. The settings on record: doxorubicin 1 μM, 24 hours. The procedure:
(§2) The expression of two cell cycle-related proteins—cyclin A and cyclin B1—was checked by Western blot. The expression of cyclin A and cyclin B1 was normalized by the expression of the internal control β-actin (lower panel). The cells were treated with 50 μM and 100 μM Sal-B, respectively, for 24 hours. Doxorubicin (0.1 μM and 1 μM) was used as a control. […] The results may be explained by that the cell cycle progression is controlled by a large set of molecules, although cyclin B1 is a key component in the control of cell cycle progression from G2 to M phase.
(§3) The immunohistochemical results were consistent with those from Western blotting (FIG. 7, panel A). Western blot analysis was used to determine the expression of apoptosis-related proteins Bcl-XL, survivin, caspase-3 and caspase-8 (FIG. 7, panel A). β-actin was used as an internal control for Western blotting. The MCD-7 and MDA cells were treated with Sal-B (50 μM and 100 μM) and doxorubicin (0.1 μM and 1 μM), respectively, for 24 hours. Proteins were extracted from the cells with RIPA lysis buffer (Santa Cruz Biotechnology, Santa Cruz, CA) and the protein concentrations were quantified with Bio-Rad protein quantification kit. Whole-cell proteins were separated on 8% SDS-polyacrylamide gel, transferred to the polyvinylidene difluoride membrane (Bio-Rad), and then probed with the indicated primary antibodies overnight at 4° C. Washed blots were then incubated with horseradish peroxidase-conjugated anti-rabbit, anti-mouse, or anti-goat antibody (Santa Cruz Biotechnology), respectively, for one hour at room temperature. Blots were developed and visualized with ECL detection system (Bio-Rad).
(In western blotting, separated proteins are transferred to a membrane and probed.)

In assay [2] the test system is Bcl-xL. The assay is described as follows: Western blot of Bcl-xL expression in MDA and MCF-7 cells. The settings on record: doxorubicin 0.1 μM and 1 μM, 24 hours. Type of assay: cell-based, human. Here is the method: as §3
A further assay concerns cyclin A. The assay is described as follows: Western blot of cyclin A expression in MDA and MCF-7 cells. The following applies: doxorubicin 1 μM, 24 hours. The assay is classed as cell-based, human. The procedure:
as §2
as §3, with “Washed blots were then incubated with horseradish peroxidase-conjugated anti-rabbit, anti-mouse, or anti-goat antibody (Santa Cruz Biotechnology), respectively, for one hour at room temperature. Blots were developed and visualized with ECL detection system (Bio-Rad).” left out

A further assay relates to ceramides. The assay is described as follows: Immunohistochemistry of ceramides in MDA tumor xenografts. The following applies: doxorubicin 4 mg/kg every four weeks; untreated control 2.3±0.7; P<0.05. The assay is classed as in vivo, athymic nude mice. Here is the method: (§4) Human tumor xenografts in athymic nude mice. […] The animal protocol was approved by the Howard University Animal Care and Use Committee. Four-week-old female athymic nude mice (Nu/Nu) were obtained from Harlan Sprague Dawley (Indianapolis, IN). All mice were provided the Harlan Teklad #2018 Global 18% protein rodent diet and water ad libitum. Mice were housed in temperature-controlled rooms (74±2° F.) with a 12-hour alternating light-dark cycle. MDA cells (3×10^6/50 μL/spot) were subcutaneously injected into the both sides of lower back of mice using a 27-gauge needle. […]
Immunohistochemical staining was performed as described previously (Hao Y, et al., “Enforced expression of miR-101 inhibits prostate cancer cell growth by modulating the COX-2 pathway in vivo,” Cancer Prev Res (Phila), 2011; 4: 1073-1083). […] For the quantification, ten high-magnification (40×) fields were randomly selected from each slide of tumors and the positive cells were counted. The protein expression was expressed as the average number of positive cells per high magnification field. […]

Assay [3] concerns survivin. The assay is described as follows: Immunohistochemical staining of survivin in MDA tumor xenografts. The assay is classed as in vivo, athymic nude mice. The following applies: doxorubicin 4 mg/kg every four weeks; versus untreated group. Here is the method: as §4
(§5) Immunohistochemical staining was performed as described previously (Hao Y, et al., “Enforced expression of miR-101 inhibits prostate cancer cell growth by modulating the COX-2 pathway in vivo,” Cancer Prev Res (Phila), 2011; 4: 1073-1083). […] For the quantification, ten high-magnification (40×) fields were randomly selected from each slide of tumors and the positive cells were counted. The protein expression was expressed as the average number of positive cells per high magnification field.

For another assay, the system named is ER-α. The assay is described as follows: Western blot of ER-α expression in MCF-7 cells. Type of assay: cell-based, human. The settings on record: doxorubicin at the high dose (1 μM).
The subject of assay [4] is MDA tumor xenografts. The experiment in a line: TUNEL assay of apoptotic cells in MDA tumor xenografts. The settings on record: doxorubicin 4 mg/kg every four weeks; untreated tumors 3.1±1.8; P<0.05. Type of assay: in vivo, athymic nude mice. Here is the method: as §4
Apoptotic cells in MDA tumor xenografts were also analyzed by a terminal deoxynucleotidyl transferase-mediated dUTP nick end labeling (TUNEL) assay using the TdT-FragEL DNA Fragmentation Detection Kit (EMD Millipore, Burlington, MA) as previously described (Li H, et al., “Cellular uptake and anticancer activity of salvianolic acid B phospholipid complex loaded nanoparticles in head and neck cancer and precancer cells,” Colloids Surf B Biointerfaces. 2016; 147: 65-72). […]

Assay [5] has as its system survivin. The experiment in a line: Western blot of survivin expression in MDA and MCF-7 cells. The assay is classed as cell-based, human. The settings on record: doxorubicin 0.1 μM and 1 μM, 24 hours. Here is the method: as §3
The test system of assay [6] is proliferating cell nuclear antigen (PCNA). The experiment in a line: Immunohistochemical staining of PCNA in MDA tumor xenografts. The following applies: doxorubicin 4 mg/kg every four weeks; versus untreated; P<0.05. The assay is classed as in vivo, athymic nude mice. Here is the method: as §4, §5
Assay [7] deals with Bcl-xL. The assay is described as follows: Immunohistochemical staining of Bcl-xL in MDA tumor xenografts. Type of assay: in vivo, athymic nude mice. The settings on record: doxorubicin 4 mg/kg every four weeks; versus untreated tumors; P<0.05. The procedure:
as §4, §5

Regarding `COc1cccc2c1C(=O)c1c(O)c3c(c(O)c1C2=O)C[C@@](O)(C(=O)CO)C[C@@H]3O[C@H]1C[C@H](N)[C@H](O)[C@H](C)O1` [doxorubicin, reference compound], the cytotoxicity at 0.5 µM in the assay on MCF-7 cells (Homo sapiens, MCF7, MCF-7 cells, doxorubicin 0.5 μM, read-out: reduction of cell viability) is about 67%; in the assay on MDA-MB-231 cells (Homo sapiens, MDA-MB-231, doxorubicin 0.5 μM, read-out: reduction of cell viability), 25%. Also, the “further reduction of cell viability versus 0.5 μM” value was “No further reduction” with MCF-7 cells (MCF-7 cells, doxorubicin 1 μM) and “No further reduction” in the assay with MDA-MB-231 cells (doxorubicin 1 μM). Also, the “effect on cell viability, MCF-7 cells relative to MDA cells” value with MCF-7 cells (doxorubicin 1 μM) is recorded as “approximately two-fold”. For the same molecule, the average tumor weight in the assay with MDA tumor xenografts [1] came out at 0.34 ± 0.09 g. Further, the “cyclin B1 expression (normalized to β-actin)” value with cyclin B1 (MCF-7 cells) and with cyclin B1 (MDA cells) was “reduction” throughout. The Bcl-xL protein expression entry with Bcl-xL [2] (MCF-7 cells) and in the assay with Bcl-xL [2] (MDA cells) was “downregulated” throughout. For the same molecule, the “cyclin A expression (normalized to β-actin)” value with cyclin A (MCF-7 cells) and in the assay on cyclin A (MDA cells) was “reduction” each time. In addition, the “ceramide levels in tumor xenografts (ceramide positive cells counted)” value in the assay on ceramides is reported as 6.2±1.3. Besides, the “survivin level in tumors” value with survivin [3] is “decreasing”. In addition, the “ER-α protein level (normalized to β-actin)” value in the assay with ER-α was “decreased”. Also, the “number of apoptotic cells (TUNEL)” value with MDA tumor xenografts [4] is given as 9.0±2.1. Moreover, the survivin protein expression result in the assay with survivin [5] (MCF-7 cells) and in the assay with survivin [5] (MDA cells) was “downregulated” in each case. Besides, in [6], the “PCNA levels in tumor xenografts” value is listed as “higher in untreated MDA tumor xenografts”. Also, the “expression of Bcl-xL in tumors” value with Bcl-xL [7] is “decreased expression”.

The values are drawn from patent US12383527B2, “Methods for treating triple negative breast cancer using salvianolic acid B” (HOWARD UNIVERSITY, priority 2018, dated 2025).
